Reference: ChEMBL document CHEMBL5131530, “5-Oxopyrrolidine-3-carboxamides as Nav1.8 Inhibitors for Treating Pain Disorders, Cough Disorders, and Acute and Chronic Itch Disorders” (ACS Med Chem Lett, 2022)

Molecular target: Sodium channel protein type 10 subunit alpha (Homo sapiens, UniProt Q9Y5Y9)
Assay: Inhibition of human Nav1.8 channel stably expressed in HEK293 cells assessed as sodium current flow at holding potential of -90mV by whole-cell voltage clamp assay
Type: cell-based

Sodium channel protein type 10 subunit alpha, sequence (Q9Y5Y9 whole entry, looked up): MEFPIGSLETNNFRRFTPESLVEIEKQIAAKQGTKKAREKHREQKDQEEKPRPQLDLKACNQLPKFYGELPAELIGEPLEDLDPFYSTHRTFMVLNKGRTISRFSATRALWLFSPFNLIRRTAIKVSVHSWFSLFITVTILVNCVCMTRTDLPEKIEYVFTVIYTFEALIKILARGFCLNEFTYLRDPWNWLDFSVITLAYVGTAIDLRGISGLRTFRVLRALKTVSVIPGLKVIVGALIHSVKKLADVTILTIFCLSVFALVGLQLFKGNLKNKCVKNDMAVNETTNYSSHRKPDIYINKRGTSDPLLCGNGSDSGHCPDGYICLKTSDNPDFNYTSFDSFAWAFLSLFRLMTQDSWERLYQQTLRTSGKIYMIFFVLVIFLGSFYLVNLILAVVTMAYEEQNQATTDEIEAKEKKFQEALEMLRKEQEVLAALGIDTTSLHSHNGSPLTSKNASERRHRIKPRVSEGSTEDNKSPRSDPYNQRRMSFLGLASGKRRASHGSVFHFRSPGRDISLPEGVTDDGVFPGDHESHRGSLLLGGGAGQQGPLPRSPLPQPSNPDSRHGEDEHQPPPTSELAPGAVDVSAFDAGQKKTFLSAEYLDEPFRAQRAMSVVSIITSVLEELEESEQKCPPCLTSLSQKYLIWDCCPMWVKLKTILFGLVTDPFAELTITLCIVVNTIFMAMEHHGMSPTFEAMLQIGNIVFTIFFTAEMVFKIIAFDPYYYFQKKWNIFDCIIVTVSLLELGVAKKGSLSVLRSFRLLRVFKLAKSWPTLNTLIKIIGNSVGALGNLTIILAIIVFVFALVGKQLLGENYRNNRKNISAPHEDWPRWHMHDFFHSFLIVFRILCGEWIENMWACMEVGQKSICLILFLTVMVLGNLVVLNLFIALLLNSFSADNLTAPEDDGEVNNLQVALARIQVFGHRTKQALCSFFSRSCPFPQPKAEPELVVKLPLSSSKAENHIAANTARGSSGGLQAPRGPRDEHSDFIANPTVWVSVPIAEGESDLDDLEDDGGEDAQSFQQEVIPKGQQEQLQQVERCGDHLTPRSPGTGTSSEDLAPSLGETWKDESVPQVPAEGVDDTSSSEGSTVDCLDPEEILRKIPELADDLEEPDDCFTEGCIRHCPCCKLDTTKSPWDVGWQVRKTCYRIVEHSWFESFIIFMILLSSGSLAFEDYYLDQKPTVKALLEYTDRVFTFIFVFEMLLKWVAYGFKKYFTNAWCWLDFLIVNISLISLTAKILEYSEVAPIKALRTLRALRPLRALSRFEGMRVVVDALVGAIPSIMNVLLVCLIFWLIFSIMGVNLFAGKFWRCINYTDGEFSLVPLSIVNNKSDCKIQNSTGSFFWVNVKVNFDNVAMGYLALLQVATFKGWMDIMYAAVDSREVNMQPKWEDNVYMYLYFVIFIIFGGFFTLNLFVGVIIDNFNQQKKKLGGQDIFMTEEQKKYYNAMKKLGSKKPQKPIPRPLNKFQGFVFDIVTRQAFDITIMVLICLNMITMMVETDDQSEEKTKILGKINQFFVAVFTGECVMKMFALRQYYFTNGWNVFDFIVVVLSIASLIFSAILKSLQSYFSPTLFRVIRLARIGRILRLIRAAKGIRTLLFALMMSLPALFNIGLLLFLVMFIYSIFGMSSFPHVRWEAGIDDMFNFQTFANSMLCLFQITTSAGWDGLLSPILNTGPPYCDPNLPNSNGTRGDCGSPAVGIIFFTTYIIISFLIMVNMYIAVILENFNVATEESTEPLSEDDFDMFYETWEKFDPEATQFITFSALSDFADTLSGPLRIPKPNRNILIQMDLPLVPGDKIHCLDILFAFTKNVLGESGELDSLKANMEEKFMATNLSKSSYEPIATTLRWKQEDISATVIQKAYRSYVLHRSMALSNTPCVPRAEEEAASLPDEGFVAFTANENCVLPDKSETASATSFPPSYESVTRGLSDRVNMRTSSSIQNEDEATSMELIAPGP

| SMILES | IC50 [nM] |
| --- | --- |
| O=C1C[C@H](C(=O)NC(c2ccc(Cl)cc2)c2ccc(F)c(Cl)c2)CN1 (stereo partly specified) | 3.4 |
| O=C1C[C@H](C(=O)NC(c2ccc(F)c(Cl)c2)c2ccc(F)c(C(F)(F)F)n2)CN1 (stereo partly specified) | 2.9 |
| O=C1C[C@H](C(=O)NC(c2cnc(C(F)(F)F)c(Cl)c2)c2ccc(F)c(Cl)c2F)CN1 (stereo partly specified) | 4.2 |
| O=C1C[C@H](C(=O)NC(c2ccc(Cl)cc2)c2ccc(F)c(C(F)(F)F)c2)CN1 (stereo partly specified) | 2.6 |
| O=C1C[C@H](C(=O)NC(c2ccc(Cl)cc2)c2ccc(OC(F)(F)F)cc2)CN1 (stereo partly specified) | 4.1 |
| O=C1C[C@H](C(=O)NC(c2ccc(Cl)cc2)c2ccc(Cl)c(C(F)(F)F)c2)CN1 (stereo partly specified) | 1.2 |
